Entries after “also recorded” stand apart in the source; their conditions may differ.
How the values were obtained:
PTIL194 and PTIL237 = test: Reversal of suppressive function of PTIL194 and PTIL237 by TLR ligands (naïve CD4+ T cell proliferation); format: cell-based, human; conditions: naïve CD4+ T cells:Treg 10:1, OKT3-coated plates, FIG. 5A
Description: (§1) (C) Expression of TLR8 mRNA in CD4^+ Treg and CD8^+ Treg cell clones generated from PTIL194 by RT-PCR.
(§2) Naïve CD4^+ T cells were purified from PBMCs by using microbeads (Miltenyi Biotec). Naïve CD4^+ T cells (10^5/well) were cultured with regulatory T cells at a ratio of 10:1 in OKT3 (2 μg/ml)-coated, U bottomed 96-well plates containing the following TLR ligands. […] CpG-A (3 μg/ml), CpG-B (3 μg/ml) and poly-G3 oligonucleotides (3 μg/ml) were synthesized by Integrated DNA Technologies (Coralville, Iowa). All experiments were performed at least more than once.
CD4^+ CD25-T cells (2×10^5) purified from human PBMCs by antibody-coated beads (Dynal, Inc.) were cultured for 60 hours in U-bottomed 96-well plates containing 5×104 CD3-depleted APCs, 0.1 μg/ml anti-CD3 mAb, and different numbers of CD4^+ regulatory or effector T cells. The proliferation of responder T cells was determined by the incorporation of [H^3]thymidine for the last 16 hours of culture, as previously described (Wang et al., 2004; Wang et al., 2005). Cells were harvested and the radioactivity counted in a scintillation counter. All experiments were performed in triplicate. Transwell experiments were performed in 24-well plates with a pore size of 0.4 μm (Coming Costar, Cambridge, Mass.). 2×10^5 the freshly purified naïve CD4^+ T cells were cultured in the outer wells of 24-well plate in medium containing 0.1 μg/ml anti-CD3 antibody and 2×10^5 APCs. Equal numbers of regulatory T cells or nonregulatory T cells were added into the inner wells in the same medium containing 0.5 μg/ml anti-CD3 antibody and 2×10^5 APCs. After 56 hours of culture, the cells in the outer and inner wells were harvested separately and transferred to 96-well plates. [H^3]thymidine was added, and the cells were cultured for an additional 16 hours before harvest for the radioactivity counting with a liquid scintillation counter.
as §2, with “use of” for “using”, “following” for “following TLR”, “poly-G” for “poly-G3”, “Iowa).” for “Iowa). All experiments were performed at least more than once.”

[1] = system: naturally occurring CD4+ CD25+ Treg cells; test: Reversal of suppressive function of naturally occurring CD4+ CD25+ Treg cells; format: cell-based
CD4+ Treg cells = test: Naïve T cell proliferation assay with CD4+ Treg cell populations/clones with or without TLR ligands; format: cell-based, human; conditions: prostate tumor-derived (PTIL194); FIGS. 5A, 5B
Description: as §1
(§3) To test this possibility, the suppressive effects of CD4^+ and CD8^+ Treg cells were examined on naïve T cell proliferation in a functional assay, with or without TLR8 ligands (Poly-G2 and ssRNA40) or ligands for other TLRs.
(§4) CD4^+ CD25-T cells (2×10^5) purified from human PBMCs by antibody-coated beads (Dynal, Inc.) were cultured for 60 hours in U-bottomed 96-well plates containing 5×104 CD3-depleted APCs, 0.1 μg/ml anti-CD3 mAb, and different numbers of CD4^+ regulatory or effector T cells. The proliferation of responder T cells was determined by the incorporation of [H^3]thymidine for the last 16 hours of culture, as previously described (Wang et al., 2004; Wang et al., 2005). Cells were harvested and the radioactivity counted in a scintillation counter. All experiments were performed in triplicate. Transwell experiments were performed in 24-well plates with a pore size of 0.4 μm (Coming Costar, Cambridge, Mass.). 2×10^5 the freshly purified naïve CD4^+ T cells were cultured in the outer wells of 24-well plate in medium containing 0.1 μg/ml anti-CD3 antibody and 2×10^5 APCs. […] [H^3]thymidine was added, and the cells were cultured for an additional 16 hours before harvest for the radioactivity counting with a liquid scintillation counter. […]

CD8+ Treg cells = test: Naïve T cell proliferation assay with CD8+ Treg cell populations/clones with or without TLR ligands; format: cell-based, human; conditions: prostate tumor-derived (PTIL194); FIGS. 5A, 5B
Description: as §1, §3, §4

BTIL31 γδ1 Treg cells [2] = test: CFSE-labeled naïve CD4+ T cell division in coculture with BTIL31 cells or clones; format: cell-based, human; conditions: coculture with BTIL31 bulk cells or clones, FACS, FIG. 13B
Description: (§5) In addition, naïve CD4^+ T cells were cultured in the presence of supernatants derived from BTIL31 cells pre-treated with or without the indicated TLR ligands. The proliferation of naïve CD4^+ T cells was determined by [^3H]-thymidine incorporation assay described herein. […] CFSE-labeled Naïve CD4^+ T cells cocultured with BTIL31 cells or its clones in the presence or absence of Poly-G3 in OKT3-coated 24-well plates. After 3 days of culture, cells were harvested and analyzed for divisions by FACS gated on the CFSE-labeled cells. CFSE-labeled Naïve CD4^+ T cells alone served as a control. […] BTIL31 cells were cultured in the presence or absence of Poly-G3 for 2 days, and then tested the ability of Poly-G3-treated and untreated BTIL31 cells to kill BC31 autologous tumor cells.
(§6) To test whether the suppressive function of BTIL31 γδ1 Treg cells could be reversed by TLR-8 ligands, cells were treated with a panel of TLR ligands and then test their ability to suppress naïve T cell proliferation. […] After 48 h, CFSE-labeled cells were gated for FACS analysis.

BTIL31 γδ1 Treg cells [3] = test: Naïve CD4+ T cell proliferation ([3H]-thymidine) in coculture with BTIL31 cells plus TLR ligands; format: cell-based, human; conditions: naïve CD4+ T cells:BTIL31 10:1, OKT3-coated plates; FIG. 13A
Description: as §5
as §2, with “once. […]” for “once.”

BTIL31 γδ1 Treg cells [4] = test: Naïve CD4+ T cell proliferation with supernatants from TLR ligand-treated BTIL31 cells; format: cell-based, human; conditions: FIG. 13A
Description: as §5, §6

BTIL31 γδ1 Treg cells [5] = test: Killing of BC31 autologous tumor cells by Poly-G3-treated BTIL31 cells; format: cell-based, human; conditions: BTIL31 cultured with Poly-G3 for 2 days; FIG. 13C
Description: (A). Reversal of the suppressive function of γδ 1 T cells by TLR8 ligands, but not by ligands for other TLRs. naïve CD4^+ T cells were cultured with BTIL31 cells at the ratio of 10:1 in the U bottom 96-well plates pre-coated with OKT3 in the presence of different TLR ligands: LPS, CpG-A, CpG-B, Imiquimod-R837, loxoribine, poly (I: C), ssRNA40/LyoVec, RNA33/LyoVec, pam3CSK4, flagellin and Poly-G3. In addition, naïve CD4^+ T cells were cultured in the presence of supernatants derived from BTIL31 cells pre-treated with or without the indicated TLR ligands. The proliferation of naïve CD4^+ T cells was determined by [^3H]-thymidine incorporation assay described herein. Results are one representative data of three independent experiments. (B) Restoration of CFSE-naïve CD4^+ T cell division by Poly-G3 oligonucleotides. CFSE-labeled Naïve CD4^+ T cells cocultured with BTIL31 cells or its clones in the presence or absence of Poly-G3 in OKT3-coated 24-well plates. After 3 days of culture, cells were harvested and analyzed for divisions by FACS gated on the CFSE-labeled cells. CFSE-labeled Naïve CD4^+ T cells alone served as a control. (C) Poly-G treatment had no effect on TRAIL-mediated killing activity. BTIL31 cells were cultured in the presence or absence of Poly-G3 for 2 days, and then tested the ability of Poly-G3-treated and untreated BTIL31 cells to kill BC31 autologous tumor cells. […]

## CC(C)Cn1cnc2c(N)nc3ccccc3c21 [imiquimod, Imiquimod]
PTIL194 and PTIL237
  Restoration of Treg cell suppressed proliferation of naïve CD4+ T cells: no effect
[1]
  Effect on naturally occurring CD4+ CD25+ Treg cells: little or no effect

## C=CCn1c(=O)n([C@@H]2O[C@H](CO)[C@@H](O)[C@H]2O)c2nc(N)[nH]c(=O)c21 [loxoribine]
PTIL194 and PTIL237
  Restoration of Treg cell suppressed proliferation of naïve CD4+ T cells: no effect

## AAG*GA [Poly-G2]
PTIL194 and PTIL237
  Restoration of Treg cell suppressed proliferation of naïve CD4+ T cells: Restoration
CD4+ Treg cells
  Reversal of suppressive function of CD4+ Treg-containing cell populations and Treg cell clones: abolished; also recorded: Reversal of suppressive function
CD8+ Treg cells
  Reversal of suppressive function of CD8+ Treg-containing cell populations and clones: Reversal of suppressive function

## AG*G*GA [Poly-G3]
BTIL31 γδ1 Treg cells [2]
  Restoration of proliferation or division of CFSE-labeled naïve CD4+ T cells: Restoration
BTIL31 γδ1 Treg cells [2]; listed as poly-G3
  Restoration of proliferation or division of CFSE-labeled naïve CD4+ T cells: completely restored
BTIL31 γδ1 Treg cells [3]
  Reversal of the suppressive function of BTIL31 γδ1 Treg cells (proliferation of naïve CD4+ T cells): reverse the suppressive function
BTIL31 γδ1 Treg cells [4]
  Effect of supernatants from ligand-treated γδ1 Treg cells on proliferation of naïve CD4+ T cells: enhanced rather than inhibited
BTIL31 γδ1 Treg cells [5]
  Effect on TRAIL-mediated killing of BC31 tumor cells by BTIL31 cells: no effect

## pam3CSK4
PTIL194 and PTIL237
  Restoration of Treg cell suppressed proliferation of naïve CD4+ T cells: no effect

## poly(I:C)
PTIL194 and PTIL237
  Restoration of Treg cell suppressed proliferation of naïve CD4+ T cells: no effect

— US20080026986A1, “REVERSAL OF THE SUPPRESSIVE FUNCTION OF SPECIFIC T CELLS VIA TOLL-LIKE RECEPTOR 8 SIGNALING” (priority 2006, published 2008)
